Measurements published in patent US8653100B2 (AbbVie Inc., priority 2008, dated 2014).
Counter-ions that a name gives are not always drawn.

target: human GlyT1c transporter (Homo sapiens (Human), UniProt P48067); assay: Radioligand binding assay using recombinant CHO cell membranes expressing human GlyT1; conditions: examples 88-204, radioligand not specified by footnote, hydrochloride, read-out: radioligand binding Kiapp
Description: 2. Radioligand binding assays using recombinant CHO cell membranes expressing human GlyT1:
Radioligand binding to human GlyT1c transporter-expressing membranes was carried out as described in Mezler et al., Molecular Pharmacology 74:1705-1715, 2008.
More specifically, [^3H]-(R)-NPTS radioligand binding to human GlyT1c transporter-expressing membranes was measured in duplicate in a total volume of 200 μl in 96-well plates. To 100 μl of membrane suspension (yielding a final membrane protein concentration of 50 μg/ml) in assay buffer (120 mM NaCl, 2 mM KCl, 10 mM Hepes, 1 mM MgCl2, 1 mM CaCl2, pH 7.5) […] of [^3H]-(R)-NPTS (0.5 nM final) were added in assay buffer. For competition experiments 10 μl of buffer or unlabeled compound solution obtained from dilution series of test compounds in DMSO followed. An intermediate 1:10 dilution in assay buffer yielded a final DMSO concentration of 1%. Non-specific binding was determined in the presence of 10 μM Org24598 (or its racemate Org24461) for [^3H]-(R)-NPTS. After incubation at room temperature for 1 h, the incubation mixture was harvested (Tomtec Mach III U Harvester) through 96-well GF/B filter plates (PerkinElmer), presoaked for 1 h with 40 μl per well of 0.1% polyethylene-imine (PEI). After washing twice with ice-cold 50 mM Tris-HCl pH 7.4 buffer, drying and addition of 35 μl scintillator (BetaplateScint, PerkinElmer) per well followed. The radioactivity was determined by liquid scintillation spectrometry in a MicroBeta (PerkinElmer) plate counter.
Data analysis: For binding of [^3H]-(R)-NPTS to cell membranes, the calculation of Kd and Bmax values from the saturation binding assays and the IC50 values from the displacement binding was performed by iterative non-linear regression analysis adapted from the ‘Ligand’ program (Munson and Rodbard, 1980). Radioligand displacement curves in absence or in presence of increasing concentrations of tested compounds were fitted using a one-site fit and the apparent Ki values were calculated from the IC50 values using the Cheng-Prusoff equation (Cheng and Prusoff 1973).

Chain of human GlyT1c transporter (P48067 whole entry): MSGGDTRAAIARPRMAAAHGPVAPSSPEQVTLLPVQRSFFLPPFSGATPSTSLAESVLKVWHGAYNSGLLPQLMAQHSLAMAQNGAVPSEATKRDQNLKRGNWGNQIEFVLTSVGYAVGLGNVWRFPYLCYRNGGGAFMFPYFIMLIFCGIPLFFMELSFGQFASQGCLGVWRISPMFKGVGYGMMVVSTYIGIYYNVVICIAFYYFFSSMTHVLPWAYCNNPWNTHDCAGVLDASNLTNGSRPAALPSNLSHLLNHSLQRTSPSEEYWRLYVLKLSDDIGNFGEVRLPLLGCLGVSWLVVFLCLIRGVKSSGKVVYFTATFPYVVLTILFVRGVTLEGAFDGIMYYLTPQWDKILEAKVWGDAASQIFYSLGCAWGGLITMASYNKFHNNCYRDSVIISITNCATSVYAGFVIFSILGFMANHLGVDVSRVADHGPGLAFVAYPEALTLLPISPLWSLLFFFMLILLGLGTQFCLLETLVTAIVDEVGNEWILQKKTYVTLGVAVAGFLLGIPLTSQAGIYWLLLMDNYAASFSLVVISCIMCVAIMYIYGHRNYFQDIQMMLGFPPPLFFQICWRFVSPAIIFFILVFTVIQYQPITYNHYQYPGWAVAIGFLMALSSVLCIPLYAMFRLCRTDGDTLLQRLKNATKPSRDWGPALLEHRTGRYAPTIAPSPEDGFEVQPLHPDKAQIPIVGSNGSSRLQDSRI

Row | Structure (SMILES) | Ki [nM]
1 | O=S(=O)(NCCOc1ccc2c(c1)[C@H](C1(c3ccc(Cl)cc3)CCC1)NCC2)c1cccnc1 [Example 141, N-[2-({(1S)-1-[1-(4-Chlorophenyl)cyclobutyl]-1,2,3,4-tetrahydroisoquinolin-7-yl}oxy)ethyl]pyridine-3-sulfonamide hydrochloride] | ≤ 100

same assay, conditions: examples 88-204, radioligand not specified by footnote, read-out: radioligand binding Kiapp

Row | Structure (SMILES) | Ki [nM]
2 | O=S(=O)(NCCOc1ccc2c(c1)C(C1(c3ccc(Cl)cc3)CCC1)NCC2)C1CCCNC1 (single isomer, unassigned) [Example 193, N-[2-({1-[1-(4-Chlorophenyl)cyclobutyl]-1,2,3,4-tetrahydroisoquinolin-7-yl}oxy)ethyl]piperidine-3-sulfonamide dihydrochloride] | ≤ 10000
3 | O=S(=O)(CCC(F)(F)F)NCCOc1ccc2c(c1)C(C1(c3ccc(Cl)cc3)CCC1)NCC2 (centres unmarked) [Example 144, N-[2-({1-[1-(4-Chlorophenyl)cyclobutyl]-1,2,3,4-tetrahydroisoquinolin-7-yl}oxy)ethyl]-3,3,3-trifluoropropane-1-sulfonamide hydrochloride] | ≤ 100
4 | N#Cc1ccc2c(c1)C(C1(c3ccccn3)CCC1)NCC2 (centres unmarked) [Example 129, 1-[1-(Pyridin-2-yl)cyclobutyl]-1,2,3,4-tetrahydroisoquinoline-7-carbonitrile hydrochloride] | ≤ 10000
5 | CCCS(=O)(=O)NCC(=O)Nc1ccc2c(c1)C(C1(c3ccc(Cl)cc3)CCC1)NCC2 (centres unmarked) [Example 99, N-{1-[1-(4-Chlorophenyl)cyclobutyl]-1,2,3,4-tetrahydroisoquinolin-7-yl}-N˜2˜-(propylsulfonyl)glycinamide hydrochloride] | ≤ 100
6 | O=S(=O)(NCCOc1ccc2c(c1)C(C1(c3ccc(Cl)cc3)CCC1)NCC2)C1CCN(Cc2ccccc2)CC1 (centres unmarked) [Example 177, 1-Benzyl-N-[2-({1-[1-(4-chlorophenyl)cyclobutyl]-1,2,3,4-tetrahydroisoquinolin-7-yl}oxy)ethyl]piperidine-4-sulfonamide hydrochloride] | ≤ 10000
7 | Cn1cc(S(=O)(=O)NCCOc2ccc3c(c2)C(C2(c4ccc(Cl)cc4)CC(F)(F)C2)NCC3)cn1 (single isomer, unassigned) [Example 168, N-[2-({1-[1-(4-Chlorophenyl)-3,3-difluorocyclobutyl]-1,2,3,4-tetrahydroisoquinolin-7-yl}oxy)ethyl]-1-methyl-1H-pyrazole-4-sulfonamide] | ≤ 1000
8 | NCCCNS(=O)(=O)CCCOc1ccc2c(c1)C(C1(c3ccc(Cl)cc3)CCC1)NCC2 (centres unmarked) [Example 137, N-(3-Aminopropyl)-3-({1-[1-(4-chlorophenyl)cyclobutyl]-1,2,3,4-tetrahydroisoquinolin-7-yl}oxy)propane-1-sulfonamide dihydrochloride] | ≤ 10000
9 | O=S(=O)(NCCOc1ccc2c(c1)C(C1(c3ccc(Cl)cc3)CCC1)NCC2)c1cn[nH]c1 (centres unmarked) [Example 153, N-[2-({1-[1-(4-Chlorophenyl)cyclobutyl]-1,2,3,4-tetrahydroisoquinolin-7-yl}oxy)ethyl]-1H-pyrazole-4-sulfonamide hydrochloride] | ≤ 100
10 | O=S(=O)(CCCF)NCCOc1ccc2c(c1)C(C1(c3ccccn3)CCC1)NCC2 (centres unmarked) [Example 104, 3-Fluoro-N-[2-({1-[1-(pyridin-2-yl)cyclobutyl]-1,2,3,4-tetrahydroisoquinolin-7-yl}oxy)ethyl]propane-1-sulfonamide hydrochloride] | ≤ 100
11 | O=S(=O)(NCCOc1ccc2c(c1)C(C1(c3ccc(Cl)cc3)CCC1)NCC2)C1CCNC1 (single isomer, unassigned) [Example 172, N-[2-({1-[1-(4-Chlorophenyl)cyclobutyl]-1,2,3,4-tetrahydroisoquinolin-7-yl}oxy)ethyl]pyrrolidine-3-sulfonamide dihydrochloride] | ≤ 10000
12 | O=S(=O)(Nc1cccnc1Oc1ccc2c(c1)C(C1(c3ccc(Cl)cc3)CCC1)NCC2)c1cccnc1 (centres unmarked) [Example 136, N-[2-({1-[1-(4-Chlorophenyl)cyclobutyl]-1,2,3,4-tetrahydroisoquinolin-7-yl}oxy)pyridin-3-yl]pyridine-3-sulfonamide trihydrochloride] | ≤ 10000
13 | O=S(=O)(NCCOc1ccc2c(c1)C(C1(c3ccc(Cl)cc3)CCC1)NCC2)c1ccc(CCCF)cc1 (centres unmarked) [Example 114, N-[2-({1-[1-(4-Chlorophenyl)cyclobutyl]-1,2,3,4-tetrahydroisoquinolin-7-yl}oxy)ethyl]-4-(3-fluoropropyl)benzenesulfonamide hydrochloride] | ≤ 1000
14 | O=S(=O)(CCO)NCCOc1ccc2c(c1)C(C1(c3ccc(Cl)cc3)CCC1)NCC2 (centres unmarked) [Example 97, N-[2-({1-[1-(4-Chlorophenyl)cyclobutyl]-1,2,3,4-tetrahydroisoquinolin-7-yl}oxy)ethyl]-2-hydroxyethanesulfonamide hydrochloride] | ≤ 100
15 | CC(=O)N1CC(S(=O)(=O)NCCOc2ccc3c(c2)C(C2(c4ccc(Cl)cc4)CCC2)NCC3)C1 (centres unmarked) [Example 180, 1-Acetyl-N-[2-({1-[1-(4-chlorophenyl)cyclobutyl]-1,2,3,4-tetrahydroisoquinolin-7-yl}oxy)ethyl]azetidine-3-sulfonamide di[(2E)-but-2-enedioate]] | ≤ 10000
16 | CCCS(=O)(=O)NCCOc1ccc2c(c1)C(C(C)(C)c1ccc(Cl)cc1)NCC2 (centres unmarked) [Example 139, N-[2-({1-[2-(4-Chlorophenyl)propan-2-yl]-1,2,3,4-tetrahydroisoquinolin-7-yl}oxy)ethyl]propane-1-sulfonamide] | ≤ 100
17 | O=S(=O)(NCCOc1ccc2c(c1)C(C1(c3ccc(Cl)cc3)CCC1)NCC2)c1ccc(CCF)cc1 (centres unmarked) [Example 110, N-[2-({1-[1-(4-Chlorophenyl)cyclobutyl]-1,2,3,4-tetrahydroisoquinolin-7-yl}oxy)ethyl]-4-(2-fluoroethyl)benzenesulfonamide hydrochloride] | ≤ 1000
18 | Nc1ccc(S(=O)(=O)NCCOc2ccc3c(c2)C(C2(c4ccc(Cl)cc4)CCC2)NCC3)cc1 (centres unmarked) [Example 147, 4-Amino-N-[2-({1-[1-(4-chlorophenyl)cyclobutyl]-1,2,3,4-tetrahydroisoquinolin-7-yl}oxy)ethyl]benzenesulfonamide dihydrochloride] | ≤ 100
19 | CCCS(=O)(=O)NCCOc1ccc2c(c1)C(C1(c3ccc(Cl)cc3)CCC1)N(C(C)=O)CC2 (centres unmarked) [Example 171, N-[2-({2-Acetyl-1-[1-(4-chlorophenyl)cyclobutyl]-1,2,3,4-tetrahydroisoquinolin-7-yl}oxy)ethyl]propane-1-sulfonamide] | ≤ 10000
20 | CC(C)(c1ccc(Cl)cc1)C1NCCc2ccc(C#N)cc21 (centres unmarked) [Example 107, 1-[2-(4-Chlorophenyl)propan-2-yl]-1,2,3,4-tetrahydroisoquinoline-7-carbonitrile hydrochloride] | ≤ 1000
21 | O=S(=O)(CCCOc1ccc2c(c1)C(C1(c3ccc(Cl)cc3)CCC1)NCC2)Nc1ccccn1 (centres unmarked) [Example 109, 3-({1-[1-(4-Chlorophenyl)cyclobutyl]-1,2,3,4-tetrahydroisoquinolin-7-yl}oxy)-N-(pyridin-2-yl)propane-1-sulfonamide dihydrochloride] | ≤ 1000
22 | CCCS(=O)(=O)NCc1ccc2c(c1)C(C(C)(C)c1ccc(Cl)cc1)NCC2 (centres unmarked) [Example 96, N-({1-[2-(4-Chlorophenyl)propan-2-yl]-1,2,3,4-tetrahydroisoquinolin-7-yl}methyl)propane-1-sulfonamide hydrochloride] | ≤ 100
23 | CCCS(=O)(=O)Nc1ccc(Oc2ccc3c(c2)C(C2(c4ccc(Cl)cc4)CCC2)NCC3)nc1 (centres unmarked) [Example 119, N-[6-({1-[1-(4-Chlorophenyl)cyclobutyl]-1,2,3,4-tetrahydroisoquinolin-7-yl}oxy)pyridin-3-yl]propane-1-sulfonamide dihydrochloride] | ≤ 10000
24 | O=S(=O)(NCCOc1ccc2c(c1)C(C1(c3ccc(Cl)cc3)CCC1)NCC2)c1ccc(Oc2ccccc2)nc1 (centres unmarked) [Example 173, N-[2-({1-[1-(4-Chlorophenyl)cyclobutyl]-1,2,3,4-tetrahydroisoquinolin-7-yl}oxy)ethyl]-6-phenoxypyridine-3-sulfonamide hydrochloride] | ≤ 10000
25 | CCCS(=O)(=O)NCc1ccc2c(c1)C(C1(c3ccc(Cl)cc3)CCC1)NCC2 (centres unmarked) [Example 90, N-({1-[1-(4-Chlorophenyl)cyclobutyl]-1,2,3,4-tetrahydroisoquinolin-7-yl}methyl)propane-1-sulfonamide hydrochloride] | ≤ 100
26 | O=S(=O)(NCCOc1ccc2c(c1)C(C1(c3ccc(Cl)cc3)CCC1)NCC2)C1CNC1 (centres unmarked) [Example 166, N-[2-({1-[1-(4-Chlorophenyl)cyclobutyl]-1,2,3,4-tetrahydroisoquinolin-7-yl}oxy)ethyl]azetidine-3-sulfonamide (2E)-but-2-enedioate] | ≤ 1000
